Reference: patent publication US6822100B2 (Bristol-Myers Squibb Company, priority 2001, dated 2004)
Where a name gives a salt, the structure may show the parent alone. Read-outs that look alike come from different tables or passages of the source.

How the values were obtained:
[1] = target: T1, human serotonin transporters (Homo sapiens, UniProt P31645); assay: Serotonin Transporter Binding Assay; conditions: HEK-hSERT cell membranes, 1 nM [3H]-citalopram, Cheng and Prusoff
T1 construct: expressed in transfected cells; host or cells: HEK-293 (HEK-hSERT), membrane homogenates
T1 sequence (P31645 whole entry): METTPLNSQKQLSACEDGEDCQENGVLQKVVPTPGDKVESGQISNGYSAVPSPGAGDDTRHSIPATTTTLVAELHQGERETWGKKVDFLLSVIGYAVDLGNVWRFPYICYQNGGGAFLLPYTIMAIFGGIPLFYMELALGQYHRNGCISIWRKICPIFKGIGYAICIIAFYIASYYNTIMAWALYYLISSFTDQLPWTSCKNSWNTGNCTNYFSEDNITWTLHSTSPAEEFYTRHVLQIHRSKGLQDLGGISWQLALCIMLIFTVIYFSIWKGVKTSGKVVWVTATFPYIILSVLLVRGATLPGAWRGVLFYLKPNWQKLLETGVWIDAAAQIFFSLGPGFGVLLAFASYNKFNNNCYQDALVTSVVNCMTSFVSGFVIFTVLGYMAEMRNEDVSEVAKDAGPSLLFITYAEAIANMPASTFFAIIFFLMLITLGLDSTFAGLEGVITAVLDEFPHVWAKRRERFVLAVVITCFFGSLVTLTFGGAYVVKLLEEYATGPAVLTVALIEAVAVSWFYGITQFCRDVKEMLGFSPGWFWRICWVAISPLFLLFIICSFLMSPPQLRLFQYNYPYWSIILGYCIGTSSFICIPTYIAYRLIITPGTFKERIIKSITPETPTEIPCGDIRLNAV
Description: HEK-293 cells that stably express human serotonin transporters (HEK-hSERT cells) were grown at 37° C. in 5% CO2 as a monolayer in medium consisting of EMEM supplemented with 10% fetal bovine serum and G418 sulfate (500 μg/ml). To prepare membranes for radioligand binding experiments, cells were rinsed twice with phosphate-buffered saline (138 mM NaCl, 4.1 mM KCl, 5.1 mM Na2PO4, 1.5 mM […], 11.1 mM glucose, pH 7.4). Cells were transferred from plates to polypropylene tubes (16×100 mm), centrifuged at 1,200×g for 5 min and were frozen at −80° C. until assay. Following centrifugation, pellets were resuspended by homogenization in buffer consisting of 50 mM Tris (pH 7.7 at 25° C.), 120 mM NaCl and 5 mM KCl and then centrifuged at 32,000×g for 10 min. Following centrifugation, supernatants were discarded and pellets were resuspended in buffer consisting of 50 mM Tris (pH 7.4 at 25° C.), 150 mM NaCl and 5 mM KCl. Membrane homogenates (200 μl/plate) were incubated with 1 nM [^3H]-citalopram (specific activity=85 Ci/mmol) and increasing concentrations of test compounds for 1 hr at 25° C. in a total volume of 250 μl. The assay buffer consisted of 50 mM Tris (pH 7.4 at 25° C.), 120 mM NaCl and 5 mM KCl (pH 7.4 with conc. HCl). Plates were incubated for 1 hr at 25° C., then filtered through 0.5% PEI treated Whatman GF/B filters using a Brandel cell harvester. Filters were washed three times with 3 ml of ice-cold tris wash buffer. Non-specific binding was defined with 10 μM fluoxetine. Amount of radioligand bound in the presence and absence of competitor was analyzed by plotting (−)log drug concentration versus the amount of radioligand specifically bound. The midpoint of the displacement curve (IC50, nM), signifies the potency. Ki values were calculated using the method of Cheng and Prusoff (1973).

[2] = target: T2, recombinant human dopamine D2L receptors (Homo sapiens, UniProt P14416); assay: Dopamine Binding Assay; conditions: HEK-D2L cell membranes, 150 pM [3H]-spiperone, Cheng and Prusoff
T2 construct: expressed in transfected cells; host or cells: HEK-293 (HEK-D2L), membrane homogenates
T2 sequence (P14416 whole entry): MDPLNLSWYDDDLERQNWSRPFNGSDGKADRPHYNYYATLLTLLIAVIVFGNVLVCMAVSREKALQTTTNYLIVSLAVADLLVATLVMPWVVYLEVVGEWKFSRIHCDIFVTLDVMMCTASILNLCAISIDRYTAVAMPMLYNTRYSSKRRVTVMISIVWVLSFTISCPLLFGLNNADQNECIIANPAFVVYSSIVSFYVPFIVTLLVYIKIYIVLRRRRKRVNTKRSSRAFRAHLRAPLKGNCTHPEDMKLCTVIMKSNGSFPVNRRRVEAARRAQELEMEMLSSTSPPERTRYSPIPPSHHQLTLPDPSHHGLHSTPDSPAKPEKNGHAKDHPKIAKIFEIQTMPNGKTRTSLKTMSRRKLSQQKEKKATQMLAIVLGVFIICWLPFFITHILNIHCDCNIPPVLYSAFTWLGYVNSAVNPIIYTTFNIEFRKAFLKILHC
Description: HEK-293 cells that stably express recombinant human dopamine D2L receptors (HEK-D2L cells) were grown at 37° C. in 5% CO2 as a monolayer in medium consisting of EMEM supplemented with 10% fetal bovine serum and G418 sulfate (500 μg/ml). To prepare membranes for radioligand binding experiments, cells were rinsed twice with phosphate-buffered saline (138 mM NaCl, 4.1 mM KCl, 5.1 mM Na2PO4, 1.5 mM KH2PO2 11.1 mM glucose, pH 7.4), and incubated for 5-10 min. at 4° C. in hypotonic lysis buffer consisting of 10 mM Tris (pH 7.4) and 5 mM EDTA. Cells were transferred from plates to polypropylene tubes (16×100 mm), homogenized and centrifuged at 32,000×g for 20 min. Following centrifugation, pellets were resuspended by homogenization in buffer consisting of 50 mM Tris (pH 7.7 at 25° C.) and 1 mM EDTA. Homogenates were stored at −80° C. until needed. On the day of an experiment, homogenates were thawed then centrifuged at 32,000×g for 20 min. Following centrifugation, supernatants were discarded and pellets were resuspended in assay buffer consisting of 50 mM Tris (pH 7.4 at 25° C.), 1 mM EDTA and 6 mM MgCl2. Membrane homogenates (˜5 μg) were incubated with 150 pM [^3H]-spiperone (Amersham Life Science) and increasing concentrations of test compounds for 1.5 hr at 22° C. in a total volume of 400 μl. Reactions were stopped by addition of ice-cold assay buffer and filtration over glass fiber filters (Whatman GFB, pre-soaked in 0.05% polyethylenimine) using a microtitre format Brandel cell harvester. Filters were washed with 3 ml of ice-cold assay buffer. Non-specific binding was defined with 2 μM (+)butaclamol. Ki values were calculated using the method of Cheng and Prusoff (1973). Protein concentrations were determined by the method of Bradford (1976) with BSA as a standard.

Molecule `CNCC1CC1c1c[nH]c2ccc(C#N)cc12` (racemic) [Example 119, trans-2-[5-Cyanoindol-3-yl]-1-(N-methylaminomethyl)cyclopropane] has a Ki ([1]; read-out: SERT Ki) of 1 to 10 nM and a Ki [2] of 100 to 1000 nM.

For `CC(C1CC1c1c[nH]c2ccc(C#N)cc12)N(C)C` (racemic) [Example 121, trans-3-[2-(1-Dimethylamino-ethyl)-cyclopropyl]-1H-indole-5-carbonitrile], the Ki ([1]; SERT Ki (nM)) was under 1 nM and the Ki [2] was over 1000 nM.

Molecule `CCN(CC)C(C)C1CC1c1c[nH]c2ccc(C#N)cc12` (racemic) [Example 123, trans-3-[2-(1-Diethylamino-ethyl)-cyclopropyl]-1H-indole-5-carbonitrile] has a Ki ([1]; SERT Ki (nM)) of 10 to 100 nM and a Ki [2] of over 1000 nM.

Molecule `CNC(C)C1CC1c1c[nH]c2ccc(C#N)cc12` (racemic) [Example 125, trans-3-[2-(1-Methylamino-ethyl)-cyclopropyl]-1H-indole-5-carbonitrile] has a Ki ([1]; read-out: SERT Ki) of 1 to 10 nM and a Ki [2] of 100 to 1000 nM.

Work on `CCNC(C)C1CC1c1c[nH]c2ccc(C#N)cc12` (racemic) [Example 126, trans-3-[2-(1-Ethylamino-ethyl)-cyclopropyl]-1H-indole-5-carbonitrile] yielded a Ki ([1]; read-out: SERT Ki) of 10 to 100 nM and a Ki [2] of 100 to 1000 nM.

`CNC[C@H]1C[C@@H]1c1c[nH]c2ccc(C(F)(F)F)cc12` (racemic) [Example 154, Methyl-[2-(5-trifluoromethyl-1H-indol-3-yl)-cyclopropylmethyl]-amine] was tested, and the Ki ([1]; read-out: SERT Ki) was 10 to 100 nM.

With `CNC[C@H]1C[C@@H]1c1c[nH]c2cc(C(F)(F)F)ccc12` (racemic) [Example 155, Methyl-[2-(6-trifluoromethyl-1H-indol-3-yl)-cyclopropylmethyl]-amine] the Ki ([1]; SERT Ki (nM)) was 10 to 100 nM and the Ki [2] was over 1000 nM.

For `CCNC[C@H]1C[C@@H]1c1c[nH]c2cc(C(F)(F)F)ccc12` (racemic) [Example 156, Ethyl-[2-(6-trifluoromethyl-1H-indol-3-yl)-cyclopropylmethyl]-amine], the Ki ([1]; read-out: SERT Ki) was 100 to 1000 nM.

`CN(Cc1ccccc1)C[C@H]1C[C@@H]1c1c[nH]c2cc(C(F)(F)F)ccc12` (racemic) [Example 157, Benzyl-methyl-[2-(6-trifluoromethyl-1H-indol-3-yl)-cyclopropylmethyl]-amine] was tested, and the Ki ([1]; read-out: SERT Ki) was 100 to 1000 nM.

With `CNC[C@H]1C[C@@H]1c1c[nH]c2cc(C#N)ccc12` (racemic) [Example 158, 3-(2-Methylaminomethyl-cyclopropyl)-1H-indole-6-carbonitrile] the Ki ([1]; SERT Ki (nM)) was 10 to 100 nM and the Ki [2] was over 1000 nM.

Work on `CCNC[C@H]1C[C@@H]1c1c[nH]c2cc(C#N)ccc12` (racemic) [Example 159, 3-(2-Ethylaminomethyl-cyclopropyl)-1H-indole-6-carbonitrile] yielded a Ki ([1]; read-out: SERT Ki) of 100 to 1000 nM.

Work on `CCN(CC)C[C@H]1C[C@@H]1c1c[nH]c2cc(C#N)ccc12` (racemic) [Example 160, 3-(2-Diethylaminomethyl-cyclopropyl)-1H-indole-6-carbonitrile] yielded a Ki ([1]; SERT Ki (nM)) of 10 to 100 nM and a Ki [2] of over 1000 nM.

Molecule `CCN(C)C[C@H]1C[C@@H]1c1c[nH]c2cc(C#N)ccc12` (racemic) [Example 161, 3-{2-[(Ethyl-methyl-amino)-methyl]-cyclopropyl}-1H-indole-6-carbonitrile] has a Ki ([1]; read-out: SERT Ki) of 100 to 1000 nM.

In the case of `CN(Cc1ccccc1)C[C@H]1C[C@@H]1c1c[nH]c2cc(C#N)ccc12` (racemic) [Example 162, 3-{2-[(Benzyl-methyl-amino)-methyl]-cyclopropyl}-1H-indole-6-carbonitrile], the Ki ([1]; read-out: SERT Ki) is reported as 10 to 100 nM and the Ki [2] is reported as 100 to 1000 nM.

Work on `CN(Cc1ccccc1)C[C@@H]1C[C@H]1c1c[nH]c2ccc(C#N)cc12` (relative stereo) [Example 3, Trans-2-[5-Cyanoindol-3-yl]-1-[N,N-methyl-benzylaminomethyl]-cyclopropane] yielded a Ki ([1]; read-out: SERT Ki) of under 1 nM and a Ki [2] of 100 to 1000 nM.

`N#Cc1ccc2[nH]cc([C@@H]3C[C@H]3CNCc3ccccc3)c2c1` (relative stereo) [Example 7, trans-1-(N-Benzlyaminomethyl)-2-[5-cyanoindol-3-yl]-cyclopropane] showed a Ki ([1]; read-out: SERT Ki) of 1 to 10 nM and a Ki [2] of 100 to 1000 nM.

For `CN(C)CC1CC1c1csc2ccccc12` (single isomer, unassigned; (-)) [Example 190A, (−)-(2-Benzo[b]thiophen-3-yl-cyclopropylmethyl)-dimethyl-amine], the Ki ([1]; read-out: SERT Ki) was 100 to 1000 nM.

In the case of `CN(C)CC1CC1c1ccc2[nH]cc(Br)c2c1` (centres unmarked) [Example 150, N,N-dimethyl-2-(3-bromoindol-5-yl)cycloprop-1-yl methylamine], the Ki ([1]; read-out: SERT Ki) is reported as 10 to 100 nM.

Molecule `CN(C)CC1CC1c1ccc2[nH]cc(C#N)c2c1` (centres unmarked) [Example 151, 5-(2-Dimethylaminomethyl-cyclopropyl)-1H-indole-3-carbonitrile] has a Ki ([1]; read-out: SERT Ki) of 1 to 10 nM.

Work on `CCN(C)CC1CC1c1n[nH]c2ccc(C#N)cc12` (centres unmarked) [Example 164, 3-{2-[(Ethyl-methyl-amino)-methyl]-cyclopropyl}-1H-indazole-5-carbonitrile] yielded a Ki ([1]; read-out: SERT Ki) of 100 to 1000 nM.

`CCN(CC)CC1CC1c1n[nH]c2ccc(C#N)cc12` (centres unmarked) [Example 165, 3-(2-Diethylaminomethyl-cyclopropyl)-1H-indazole-5-carbonitrile] gave a Ki ([1]; read-out: SERT Ki) of 100 to 1000 nM.

With `N#Cc1ccc2[nH]nc(C3CC3CN3CCCC3)c2c1` (centres unmarked) [Example 166, 3-(2-Pyrrolidin-1-ylmethyl-cyclopropyl)-1H-indazole-5-carbonitrile] the Ki ([1]; read-out: SERT Ki) was 100 to 1000 nM.

`CNCC1CC1c1csc2ccccc12` (centres unmarked) [Example 168, (2-Benzo[b]thiophen-3-yl-cyclopropylmethyl)-methyl-amine] gave a Ki ([1]; read-out: SERT Ki) of 10 to 100 nM.

Molecule `CCN(C)CC1CC1c1csc2ccccc12` (centres unmarked) [Example 170, (2-Benzo[b]thiophen-3-yl-cyclopropylmethyl)-ethyl-methyl-amine] has a Ki ([1]; read-out: SERT Ki) of 100 to 1000 nM.

In the case of `CCN(CC)CC1CC1c1csc2ccccc12` (centres unmarked) [Example 171, (2-Benzo[b]thiophen-3-yl-cyclopropylmethyl)-diethyl-amine], the Ki ([1]; read-out: SERT Ki) is reported as 100 to 1000 nM.

For `c1ccc2c(C3CC3CN3CCCC3)csc2c1` (centres unmarked) [Example 172, 1-(2-Benzo[b]thiophen-3-yl-cyclopropylmethyl)-pyrrolidine], the Ki ([1]; read-out: SERT Ki) was 100 to 1000 nM.

Molecule `CCN(CC)CCCC1CC1c1c[nH]c2ccc(C#N)cc12` (stereo not drawn) [Example 177, Trans-2-[5-cyanoindol-3-yl]1-(3-(N,N-diethylamino)propyl)cyclopropane] has a Ki ([1]; read-out: SERT Ki) of 10 to 100 nM.

`C[N+](C)(C)C[C@H]1C[C@@H]1c1c[nH]c2ccc(C#N)cc12` [Example 187, S,S-Trans-2-[5-Cyanoindol-3-yl]-1-(trimethylammoniummethyl)cyclopropane trifluoroacetate] gave a Ki ([1]; read-out: SERT Ki) of under 1 nM.

With `CN(C)C[C@H]1C[C@@H]1c1cn(C)c2ccc(C#N)cc12` [Example 188] the Ki ([1]; read-out: SERT Ki) was 1 to 10 nM.

With `CCn1cc([C@H]2C[C@@H]2CN(C)C)c2cc(C#N)ccc21` [Example 189] the Ki ([1]; read-out: SERT Ki) was 1 to 10 nM.

`CN(C)CC1CC1c1ccc2cc[nH]c2c1` (centres unmarked) [Example 191, [2-(1H-Indol-6-yl)-cyclopropylmethyl]-dimethyl-amine] showed a Ki ([1]; read-out: SERT Ki) of 10 to 100 nM.

`CN(C)CC1CC1c1ccc2c(C#N)c[nH]c2c1` (centres unmarked) [Example 192, 6-(2-Dimethylaminomethyl-cyclopropyl)-1H-indole-3-carbonitrile] showed a Ki ([1]; read-out: SERT Ki) of 1 to 10 nM.

Work on `CN(C)CCC1CC1c1c[nH]c2ccc(C#N)cc12` (centres unmarked) [Example 193, 3-[2-(2-Dimethylamino-ethyl)-cyclopropyl]-1H-indole-5-carbonitrile] yielded a Ki ([1]; read-out: SERT Ki) of 1 to 10 nM.
